Measured values as given in the NIST ThermoML archive (doi:10.1021/acs.jced.6b00640).
± gives the expanded uncertainty stated by the source.

Experiment: xn = mol fraction of the nth substance listed
Settings: 100 kPa, Liquid; for viscosity: Concentric cylinders viscometry; for mass density: Vibrating tube method

CCOC(=O)CCC(=O)OCC [diethyl butanedioate] + CCCC(=O)OCC
Settings | mass density [kg/m3] | viscosity [mPa·s]
288.15 K, x2 = 0.0999 | 1032.25 ± 0.83 | 2.784 ± 0.033
288.15 K, x2 = 0.2 | 1018.97 ± 0.83 | 2.407 ± 0.029
288.15 K, x2 = 0.3003 | 1004.96 ± 0.83 | 2.07 ± 0.025
288.15 K, x2 = 0.3999 | 990.34 ± 0.83 | 1.782 ± 0.022
288.15 K, x2 = 0.5 | 974.86 ± 0.83 | 1.537 ± 0.019
288.15 K, x2 = 0.5997 | 958.7 ± 0.83 | 1.334 ± 0.017
288.15 K, x2 = 0.7 | 941.56 ± 0.83 | 1.162 ± 0.015
288.15 K, x2 = 0.7999 | 923.5 ± 0.83 | 1.015 ± 0.013
288.15 K, x2 = 0.8999 | 904.39 ± 0.83 | 0.8744 ± 0.011
293.15 K, x2 = 0.0999 | 1027.04 ± 0.83 | 2.464 ± 0.029
293.15 K, x2 = 0.2 | 1013.76 ± 0.83 | 2.146 ± 0.026
293.15 K, x2 = 0.3003 | 999.74 ± 0.83 | 1.859 ± 0.023
293.15 K, x2 = 0.3999 | 985.12 ± 0.83 | 1.613 ± 0.02
293.15 K, x2 = 0.5 | 969.64 ± 0.83 | 1.402 ± 0.017
293.15 K, x2 = 0.5997 | 953.46 ± 0.83 | 1.225 ± 0.015
293.15 K, x2 = 0.7 | 936.32 ± 0.83 | 1.077 ± 0.014
293.15 K, x2 = 0.7999 | 918.25 ± 0.83 | 0.9435 ± 0.012
293.15 K, x2 = 0.8999 | 899.13 ± 0.83 | 0.8176 ± 0.011
298.15 K, x2 = 0.0999 | 1021.84 ± 0.83 | 2.202 ± 0.026
298.15 K, x2 = 0.2 | 1008.55 ± 0.83 | 1.932 ± 0.023
298.15 K, x2 = 0.3003 | 994.54 ± 0.83 | 1.684 ± 0.021
298.15 K, x2 = 0.3999 | 979.9 ± 0.83 | 1.471 ± 0.018
298.15 K, x2 = 0.5 | 964.41 ± 0.83 | 1.286 ± 0.016
298.15 K, x2 = 0.5997 | 948.23 ± 0.83 | 1.131 ± 0.014
298.15 K, x2 = 0.7 | 931.08 ± 0.83 | 1.002 ± 0.013
298.15 K, x2 = 0.7999 | 913 ± 0.83 | 0.8815 ± 0.012
298.15 K, x2 = 0.8999 | 893.87 ± 0.83 | 0.7679 ± 0.01
303.15 K, x2 = 0.0999 | 1016.65 ± 0.83 | 1.983 ± 0.024
303.15 K, x2 = 0.2 | 1003.35 ± 0.83 | 1.749 ± 0.021
303.15 K, x2 = 0.3003 | 989.33 ± 0.83 | 1.535 ± 0.019
303.15 K, x2 = 0.3999 | 974.68 ± 0.83 | 1.347 ± 0.017
303.15 K, x2 = 0.5 | 959.18 ± 0.83 | 1.185 ± 0.015
303.15 K, x2 = 0.5997 | 942.99 ± 0.83 | 1.048 ± 0.013
303.15 K, x2 = 0.7 | 925.83 ± 0.83 | 0.9351 ± 0.012
303.15 K, x2 = 0.7999 | 907.74 ± 0.83 | 0.8255 ± 0.011
303.15 K, x2 = 0.8999 | 888.59 ± 0.83 | 0.7228 ± 0.0098
308.15 K, x2 = 0.0999 | 1011.46 ± 0.83 | 1.796 ± 0.022
308.15 K, x2 = 0.2 | 998.15 ± 0.83 | 1.593 ± 0.02
308.15 K, x2 = 0.3003 | 984.12 ± 0.83 | 1.405 ± 0.017
308.15 K, x2 = 0.3999 | 969.46 ± 0.83 | 1.239 ± 0.016
308.15 K, x2 = 0.5 | 953.96 ± 0.83 | 1.096 ± 0.014
308.15 K, x2 = 0.5997 | 937.75 ± 0.83 | 0.9742 ± 0.013
308.15 K, x2 = 0.7 | 920.58 ± 0.83 | 0.8745 ± 0.011
308.15 K, x2 = 0.7999 | 902.47 ± 0.83 | 0.7752 ± 0.01
308.15 K, x2 = 0.8999 | 883.31 ± 0.83 | 0.6811 ± 0.0094
313.15 K, x2 = 0.0999 | 1006.27 ± 0.83 | 1.642 ± 0.02
313.15 K, x2 = 0.2 | 992.95 ± 0.83 | 1.465 ± 0.018
313.15 K, x2 = 0.3003 | 978.91 ± 0.83 | 1.297 ± 0.016
313.15 K, x2 = 0.3999 | 964.25 ± 0.83 | 1.149 ± 0.015
313.15 K, x2 = 0.5 | 948.72 ± 0.83 | 1.019 ± 0.013
313.15 K, x2 = 0.5997 | 932.5 ± 0.83 | 0.91 ± 0.012
313.15 K, x2 = 0.7 | 915.31 ± 0.83 | 0.8216 ± 0.011
313.15 K, x2 = 0.7999 | 897.18 ± 0.83 | 0.731 ± 0.0099
313.15 K, x2 = 0.8999 | 878 ± 0.83 | 0.6451 ± 0.009
318.15 K, x2 = 0.0999 | 1001.09 ± 0.83 | 1.5 ± 0.018
318.15 K, x2 = 0.2 | 987.76 ± 0.83 | 1.341 ± 0.017
318.15 K, x2 = 0.3003 | 973.7 ± 0.83 | 1.193 ± 0.015
318.15 K, x2 = 0.3999 | 959.02 ± 0.83 | 1.061 ± 0.014
318.15 K, x2 = 0.5 | 943.48 ± 0.83 | 0.9464 ± 0.012
318.15 K, x2 = 0.5997 | 927.25 ± 0.83 | 0.8492 ± 0.011
318.15 K, x2 = 0.7 | 910.04 ± 0.83 | 0.7706 ± 0.01
318.15 K, x2 = 0.7999 | 891.89 ± 0.83 | 0.6883 ± 0.0095
318.15 K, x2 = 0.8999 | 872.69 ± 0.83 | 0.6086 ± 0.0086
323.15 K, x2 = 0.0999 | 995.9 ± 0.83 | 1.384 ± 0.017
323.15 K, x2 = 0.2 | 982.56 ± 0.83 | 1.245 ± 0.016
323.15 K, x2 = 0.3003 | 968.49 ± 0.83 | 1.113 ± 0.014
323.15 K, x2 = 0.3999 | 953.79 ± 0.83 | 0.9951 ± 0.013
323.15 K, x2 = 0.5 | 938.24 ± 0.83 | 0.8916 ± 0.012
323.15 K, x2 = 0.5997 | 921.98 ± 0.83 | 0.7992 ± 0.011
323.15 K, x2 = 0.7 | 904.75 ± 0.83 | 0.7302 ± 0.0099
323.15 K, x2 = 0.7999 | 886.58 ± 0.83 | 0.6542 ± 0.0091
323.15 K, x2 = 0.8999 | 867.36 ± 0.83 | 0.5785 ± 0.0083
